Among the test systems are OVCAR-8; NCI-H460; HOP-62; OVCAR-3; SR; SF-539; NCI-H23; SK-MEL-2; IGROV-1; TK-10; MDA-MB-231; M14; U-251; MDA-MB-435; HOP-92; SNB-19; A549; RPMI-8226; SF-295; Hs-578T.
Holding throughout (test): NCI-60 cell line screen, 48 h

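Briefly, cells in 96-well plates were exposed to five compound concentrations for 48 h, and endpoints were estimated by linear interpolation. GI50 marks 50% less growth.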 The source made the active and inactive calls. No stated cut-off is given here; in the data, active = GI50 up to about 1.1 µM and inactive = higher.

On to `COc1cc(C2c3cc4c(cc3OC(NC3CCCCC3)C2C)OCO4)cc(OC)c1OC` (stereo not given), for which the GI50 in the assay with OVCAR-8 was 0.845 µM (active); in the assay on NCI-H460, 0.488 µM (active); in the assay with HOP-62 it was 2.38 µM (inactive); with OVCAR-3 it was 0.267 µM (active); in the assay on SR, 0.378 µM (active); with SF-539, 0.339 µM (active). Further, the GI50 in the assay on NCI-H23 is 0.499 µM (active); in the assay on SK-MEL-2 it was 0.578 µM (active); in the assay on IGROV-1, 0.665 µM (active); in the assay with TK-10 it was 16.9 µM (inactive); with MDA-MB-231, 0.393 µM (active); in the assay on M14, 0.508 µM (active). Also, the GI50 was 0.467 µM (active) in the assay on U-251; 0.19 µM (active) in the assay on MDA-MB-435; 2.65 µM (inactive) with HOP-92; 0.45 µM (active) in the assay on SNB-19; 0.885 µM (active) in the assay with A549; 0.403 µM (active) in the assay on RPMI-8226. The GI50 in the assay on SF-295 is 0.203 µM (active); in the assay on Hs-578T, 0.377 µM (active).

In the case of `O=C(c1nc2ccc([N+](=O)[O-])cc2nc1O)C(O)c1ccc2c(c1)OCO2` (stereo not given), the GI50 in the assay on OVCAR-8 is > 100 µM (inactive); in the assay on NCI-H460 it was > 100 µM (inactive); in the assay with HOP-62, > 100 µM (inactive); in the assay on OVCAR-3, > 50.7 µM (inactive); with SR it was > 100 µM (inactive); in the assay with SF-539, > 100 µM (inactive). Also, the GI50 in the assay on NCI-H23 is > 100 µM (inactive); in the assay on SK-MEL-2, > 100 µM (inactive); with IGROV-1, > 100 µM (inactive); with TK-10, > 100 µM (inactive); in the assay with MDA-MB-231, > 100 µM (inactive); with M14, > 94 µM (inactive). The GI50 in the assay with U-251 is > 100 µM (inactive); in the assay with MDA-MB-435, 93.1 µM (inactive); in the assay with HOP-92, > 100 µM (inactive); in the assay on SNB-19 it was > 100 µM (inactive); with A549, > 100 µM (inactive); in the assay with RPMI-8226, 55.5 µM (inactive). Besides, the values for the GI50 with SF-295 and in the assay on Hs-578T were > 52.5 µM (inactive) and > 100 µM (inactive), respectively.

With `C=COC(=O)N[C@H]1CCc2cc(OC)c(OC)c(OC)c2-c2ccc(SC)c(=O)cc21`, the GI50 is 0.0133 µM (active) in the assay on OVCAR-8; < 0.01 µM (active) with NCI-H460; < 0.0157 µM (active) in the assay with HOP-62; < 0.01 µM (active) in the assay on OVCAR-3; < 0.01 µM (active) in the assay on SR; < 0.01 µM (active) in the assay with SF-539. The GI50 is < 0.01 µM (active) with NCI-H23; < 0.01 µM (active) in the assay with SK-MEL-2; < 0.01 µM (active) in the assay on IGROV-1; 0.177 µM (active) with TK-10; < 0.01 µM (active) with MDA-MB-231; < 0.01 µM (active) in the assay with M14. The GI50 was < 0.01 µM (active) in the assay on U-251; < 0.01 µM (active) in the assay on MDA-MB-435; < 0.01 µM (active) with HOP-92; 0.0101 µM (active) in the assay on SNB-19; < 0.01 µM (active) in the assay on A549; < 0.01 µM (active) in the assay with RPMI-8226. Moreover, the GI50 with SF-295 and with Hs-578T was < 0.01 µM (active) throughout.

As to `COC(=O)C1=C(C)NC(C)=C([N+](=O)[O-])C1c1cccc(NO)c1` (stereo not given), the GI50 is 5.81 µM (inactive) with OVCAR-8; 3.37 µM (inactive) in the assay with NCI-H460; 9.44 µM (inactive) with HOP-62; 3.9 µM (inactive) in the assay with OVCAR-3; 2.53 µM (inactive) in the assay on SR; 6.11 µM (inactive) with SF-539. The GI50 was 4.94 µM (inactive) in the assay on NCI-H23; 11.2 µM (inactive) in the assay on SK-MEL-2; 5.01 µM (inactive) in the assay on IGROV-1; 5.12 µM (inactive) with TK-10; 3.64 µM (inactive) in the assay on MDA-MB-231; 3.44 µM (inactive) with M14. The GI50 in the assay on U-251 is 5.22 µM (inactive); in the assay with MDA-MB-435, 1.98 µM (inactive); in the assay with HOP-92 it was 3.6 µM (inactive); in the assay with SNB-19, 6.65 µM (inactive); in the assay with A549, 3.86 µM (inactive); in the assay with RPMI-8226, 2.51 µM (inactive). In addition, the values for the GI50 in the assay with SF-295 and with Hs-578T were 3.79 µM (inactive) and 2.84 µM (inactive), respectively.

As for `CC(=O)c1ccc2c(c1)CC1(C2)Cc2cc3c(cc2C1=O)CCC3` (stereo not given), the GI50 in the assay with OVCAR-8 is 16.1 µM (inactive); in the assay with NCI-H460 it was 26.1 µM (inactive); in the assay on HOP-62 it was 28 µM (inactive); in the assay with OVCAR-3, 16.1 µM (inactive); in the assay on SR, 3.04 µM (inactive); in the assay on SF-539 it was 29.9 µM (inactive). Further, the GI50 in the assay on NCI-H23 is 21.5 µM (inactive); in the assay on SK-MEL-2, 21.7 µM (inactive); in the assay on IGROV-1, 19.8 µM (inactive); in the assay on TK-10, 25.7 µM (inactive); with MDA-MB-231 it was 20.6 µM (inactive); with M14 it was 15 µM (inactive). Further, the GI50 with U-251 is 30.3 µM (inactive); in the assay on MDA-MB-435, 17 µM (inactive); in the assay with HOP-92, 25.9 µM (inactive); in the assay with SNB-19, 58.9 µM (inactive); in the assay with A549 it was 20.9 µM (inactive); with RPMI-8226, 11.1 µM (inactive). Also, the GI50 is 21.8 µM (inactive) with SF-295 and 27.6 µM (inactive) with Hs-578T.

`Cc1c(Cl)cc(C(C)(C)C)c(O)c1Cc1c(C)c(Cl)cc(C(C)(C)C)c1O`: the GI50 with OVCAR-8 was 1.49 µM (inactive); with NCI-H460, 0.634 µM (active); in the assay on HOP-62 it was 2.96 µM (inactive); in the assay with OVCAR-3, 0.436 µM (active); with SR, 2.18 µM (inactive); in the assay with SF-539 it was 1.97 µM (inactive). Moreover, the GI50 with NCI-H23 was 0.656 µM (active); with SK-MEL-2, 1.73 µM (inactive); in the assay on IGROV-1, 1.1 µM (active); with TK-10, 2.04 µM (inactive); in the assay with MDA-MB-231 it was 1.65 µM (inactive); in the assay on M14, 2.42 µM (inactive). Further, the GI50 in the assay with U-251 is 1.51 µM (inactive); in the assay with MDA-MB-435, 2.06 µM (inactive); in the assay on HOP-92 it was 0.304 µM (active); in the assay on SNB-19, 1.8 µM (inactive); in the assay with A549, 0.804 µM (active); in the assay on RPMI-8226, 0.273 µM (active). Besides, the GI50 in the assay on SF-295 was 2.07 µM (inactive); with Hs-578T it was 0.635 µM (active).

Regarding `O=C1NC(c2cccc3ccccc23)Nc2ccccc21` (stereo not given), the GI50 in the assay with OVCAR-8 was 0.105 µM (active); in the assay on NCI-H460, 0.0506 µM (active); in the assay with HOP-62, 0.139 µM (active); with OVCAR-3, 0.015 µM (active); in the assay on SR, < 0.0153 µM (active); with SF-539 it was 0.0363 µM (active). The GI50 with NCI-H23 was 0.0931 µM (active); with SK-MEL-2, 0.04 µM (active); in the assay on IGROV-1 it was 0.0457 µM (active); in the assay on TK-10, 0.157 µM (active); in the assay on MDA-MB-231 it was 0.0873 µM (active); in the assay on M14 it was 0.0298 µM (active). Further, the GI50 in the assay on U-251 was 0.0336 µM (active); in the assay with MDA-MB-435 it was 0.0153 µM (active); in the assay with HOP-92 it was 0.172 µM (active); in the assay on SNB-19, 0.0399 µM (active); with A549, 0.0968 µM (active); in the assay on RPMI-8226 it was 0.0257 µM (active). Further, the figures for the GI50 with SF-295 and in the assay with Hs-578T were < 0.0202 µM (active) and 0.0147 µM (active), respectively.

`CS(=O)(=O)Nc1ccc2ccccc2c1-c1c(NS(C)(=O)=O)ccc2ccccc12`: the GI50 in the assay on OVCAR-8, in the assay on NCI-H460, in the assay with HOP-62, in the assay with OVCAR-3, in the assay on SR and in the assay with SF-539 was > 25 µM (inactive) in each case. Moreover, the GI50 with NCI-H23, in the assay with SK-MEL-2, in the assay on IGROV-1, in the assay on TK-10, in the assay on MDA-MB-231 and in the assay with M14 was > 25 µM (inactive) in each case. In addition, the GI50 in the assay with U-251, with MDA-MB-435, in the assay with HOP-92, with SNB-19, in the assay with A549 and with RPMI-8226 was > 25 µM (inactive) throughout. The GI50 in the assay with SF-295 and in the assay on Hs-578T was > 25 µM (inactive) each time.

Turning to `C[C@]12CC[C@H](O)C=C1CC[C@@H]1[C@@H]2CC[C@]2(C)C(=N/O)/C(=C/c3ccncc3)C[C@@H]12`, the GI50 with OVCAR-8 was 16 µM (inactive); in the assay on NCI-H460 it was 6.1 µM (inactive); in the assay with HOP-62 it was 13.2 µM (inactive); with OVCAR-3, 5.53 µM (inactive); with SR it was 3.4 µM (inactive); in the assay with SF-539, 5.53 µM (inactive). Besides, the GI50 in the assay on NCI-H23 was 16.1 µM (inactive); with SK-MEL-2, 10.3 µM (inactive); with IGROV-1 it was 14.8 µM (inactive); in the assay on TK-10, 12.4 µM (inactive); with MDA-MB-231 it was 11.1 µM (inactive); with M14, 5.7 µM (inactive). For the same molecule, the GI50 was 6.64 µM (inactive) in the assay with U-251; 11.1 µM (inactive) in the assay on MDA-MB-435; 7.48 µM (inactive) in the assay with HOP-92; 11.9 µM (inactive) in the assay on SNB-19; 5.19 µM (inactive) in the assay on A549; 3.78 µM (inactive) in the assay on RPMI-8226. Also, the values for the GI50 with SF-295 and in the assay on Hs-578T were 12.2 µM (inactive) and 19.4 µM (inactive), respectively.

Take `CCOC(=O)c1ccc(C(=O)OCC)n1-c1cc2cc(c1)CSCc1cc(cc(-n3c(C(=O)OCC)ccc3C(=O)OCC)c1)CSC2`: the GI50 in the assay with OVCAR-8, in the assay with NCI-H460, with HOP-62, in the assay on OVCAR-3, with SR and with SF-539 was > 10 µM (inactive) throughout. Also, the GI50 in the assay on NCI-H23, in the assay with SK-MEL-2, in the assay on IGROV-1, in the assay with TK-10, with MDA-MB-231 and with M14 was > 10 µM (inactive) throughout. The GI50 in the assay on U-251, in the assay on MDA-MB-435, in the assay with HOP-92, in the assay on SNB-19, with A549 and in the assay with RPMI-8226 was > 10 µM (inactive) each time. Besides, the GI50 in the assay with SF-295 and in the assay with Hs-578T was > 10 µM (inactive) throughout.
